Results from patent US4570006A, “Amidine compound, process for producing same and anti-complement agent comprising same” (Torii & Co. Ltd., priority 1981, dated 1986).

Legend:
Thrombin = Thrombin (Homo sapiens, UniProt P00734); experiment: biochemical; conditions: TAME hydrolysis; read-out: ID50, thrombin
Kallikrein = experiment: Anti-kallikrein activity (inhibition of TAME hydrolysis); type: biochemical; conditions: read-out: ID50, kallikrein
Description: (§1) The anti-trypsin, anti-plasmin, anti-kallikrein and anti-thrombin activities were determined according to the method of Muramatsu et al. [M. Muramatsu, T. Onishi, S. Makino, Y. Hayashi and S. Fujii, J. of Biochem., 58, 214 (1965)]. The data summarized in Table 1 are expressed in terms of molar concentration (ID50) of the test compound which inhibits 50% of the activity of each enzyme to hydrolyze TAME (tosylarginine methyl ester). The compound No. corresponds to the compound number shown in Examples.

Cls = molecular target: T1, Cls (Homo sapiens, UniProt P09871); experiment: Anti-Cl esterase activity, Cls (ATEE hydrolysis); type: biochemical; conditions: hydrolysis of ATEE; read-out: Anti-Cl activity, Cls (50% inhibition)
T1 sequence (P09871 438-688 limits assumed): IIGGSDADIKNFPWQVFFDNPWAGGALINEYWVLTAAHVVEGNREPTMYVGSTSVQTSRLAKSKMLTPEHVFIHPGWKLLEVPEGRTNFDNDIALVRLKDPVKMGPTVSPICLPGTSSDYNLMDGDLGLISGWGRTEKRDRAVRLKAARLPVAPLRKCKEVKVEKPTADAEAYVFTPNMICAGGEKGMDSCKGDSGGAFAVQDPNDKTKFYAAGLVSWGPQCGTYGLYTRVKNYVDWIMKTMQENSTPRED
T1 sequence (P09871 16-437 limits assumed): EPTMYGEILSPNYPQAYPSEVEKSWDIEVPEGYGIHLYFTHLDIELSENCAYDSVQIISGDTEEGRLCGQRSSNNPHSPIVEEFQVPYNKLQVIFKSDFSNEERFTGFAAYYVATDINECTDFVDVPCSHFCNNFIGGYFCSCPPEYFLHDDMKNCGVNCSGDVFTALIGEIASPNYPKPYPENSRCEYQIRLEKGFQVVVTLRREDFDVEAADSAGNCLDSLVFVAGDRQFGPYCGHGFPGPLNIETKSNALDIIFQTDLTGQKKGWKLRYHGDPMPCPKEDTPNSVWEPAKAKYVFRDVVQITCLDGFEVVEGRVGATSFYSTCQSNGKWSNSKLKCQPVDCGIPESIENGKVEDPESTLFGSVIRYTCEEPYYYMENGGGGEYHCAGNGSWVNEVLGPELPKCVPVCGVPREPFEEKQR
Description: The anti-Cl esterase (Clr, Cls) activity was determined according to the method of Okamura et al. [K. Okamura, M. Muramatsu and B. Fujii, Biochem. Biophys. […] The figures in Table 2 have the following meanings:
Cls: Molar concentration of the test compound which inhibits 50% of the ability of Cls to hydrolyse ATEE (acetyltyrosin ethyl ester).

Trypsin = molecular target: T2, Trypsin (Bos taurus, UniProt P00760); experiment: Anti-trypsin activity (inhibition of TAME hydrolysis); type: biochemical; conditions: read-out: ID50, trypsin
T2 sequence (P00760 24-246): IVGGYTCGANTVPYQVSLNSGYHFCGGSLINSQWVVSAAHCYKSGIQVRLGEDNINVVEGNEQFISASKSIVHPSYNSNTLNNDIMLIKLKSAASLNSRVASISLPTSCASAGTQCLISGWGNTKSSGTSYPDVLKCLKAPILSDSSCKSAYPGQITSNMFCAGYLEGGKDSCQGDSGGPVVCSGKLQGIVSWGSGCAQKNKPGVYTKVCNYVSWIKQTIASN
Description: as §1

complement = experiment: Inhibition of complement mediated hemolysis; type: cell-based
Description: The complement mediated hemolysis is widely used as a means to determine the titration of complement. The principle of this method is based on the fact that hemolysis if caused by the activation of complement, when the latter is added to a complex (immune complex) of erythrocytes and the antibody thereof. The degree of hemolysis varies in proportion to the amount of complement added. Therefore, when a known amount of complement admixed with a Cl esterase inhibitor is used, the hemolysis must be suppressed in proportion to the inhibitory activity.
The anti-Cl esterase (Clr, Cls) activity was determined according to the method of Okamura et al. [K. Okamura, M. Muramatsu and B. Fujii, Biochem. Biophys. […] The figures in Table 2 have the following meanings: […]

Clr = molecular target: T3, Clr (Homo sapiens, UniProt P00736); experiment: Anti-Cl esterase activity, Clr (AAME hydrolysis); type: biochemical; conditions: hydrolysis of AAME; read-out: Anti-Cl activity, Clr (ID50)
T3 sequence (P00736 464-705 limits assumed): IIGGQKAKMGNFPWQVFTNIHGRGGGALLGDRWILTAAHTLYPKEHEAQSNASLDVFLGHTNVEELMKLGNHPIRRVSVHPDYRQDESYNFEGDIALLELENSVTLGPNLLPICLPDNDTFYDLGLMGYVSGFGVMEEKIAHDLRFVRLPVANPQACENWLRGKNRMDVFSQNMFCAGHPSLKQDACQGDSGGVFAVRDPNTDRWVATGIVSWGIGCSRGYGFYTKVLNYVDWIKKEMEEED
T3 sequence (P00736 18-463 limits assumed): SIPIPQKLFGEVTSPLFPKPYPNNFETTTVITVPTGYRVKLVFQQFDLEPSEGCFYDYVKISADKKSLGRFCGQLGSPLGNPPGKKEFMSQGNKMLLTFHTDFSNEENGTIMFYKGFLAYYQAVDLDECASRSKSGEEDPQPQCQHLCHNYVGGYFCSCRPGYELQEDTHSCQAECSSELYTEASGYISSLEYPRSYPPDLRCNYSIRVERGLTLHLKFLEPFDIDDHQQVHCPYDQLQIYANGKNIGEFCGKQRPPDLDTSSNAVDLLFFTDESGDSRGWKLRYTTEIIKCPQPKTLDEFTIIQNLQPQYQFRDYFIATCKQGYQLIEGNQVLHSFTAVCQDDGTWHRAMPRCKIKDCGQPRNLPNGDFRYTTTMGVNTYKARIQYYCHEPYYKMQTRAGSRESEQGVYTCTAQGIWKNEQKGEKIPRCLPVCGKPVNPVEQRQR
Description: The anti-Cl esterase ([…]) activity was determined according to the method of Okamura et al. [K. Okamura, M. Muramatsu and B. Fujii, Biochem. Biophys.

Plasmin = Plasmin (Homo sapiens, UniProt P00747); experiment: Anti-plasmin activity (inhibition of TAME hydrolysis); type: biochemical; conditions: read-out: ID50, plasmin
Description: as §1

Plasmin, sequence (P00747 581-810 limits assumed, species assumed): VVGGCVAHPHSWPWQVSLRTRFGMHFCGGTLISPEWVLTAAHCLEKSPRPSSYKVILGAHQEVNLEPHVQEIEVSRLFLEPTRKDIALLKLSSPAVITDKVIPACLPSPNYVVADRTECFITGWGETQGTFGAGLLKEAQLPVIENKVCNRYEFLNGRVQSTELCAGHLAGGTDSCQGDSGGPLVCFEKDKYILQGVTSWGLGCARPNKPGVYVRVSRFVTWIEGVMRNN
Plasmin, sequence (P00747 97-580 limits assumed, species assumed): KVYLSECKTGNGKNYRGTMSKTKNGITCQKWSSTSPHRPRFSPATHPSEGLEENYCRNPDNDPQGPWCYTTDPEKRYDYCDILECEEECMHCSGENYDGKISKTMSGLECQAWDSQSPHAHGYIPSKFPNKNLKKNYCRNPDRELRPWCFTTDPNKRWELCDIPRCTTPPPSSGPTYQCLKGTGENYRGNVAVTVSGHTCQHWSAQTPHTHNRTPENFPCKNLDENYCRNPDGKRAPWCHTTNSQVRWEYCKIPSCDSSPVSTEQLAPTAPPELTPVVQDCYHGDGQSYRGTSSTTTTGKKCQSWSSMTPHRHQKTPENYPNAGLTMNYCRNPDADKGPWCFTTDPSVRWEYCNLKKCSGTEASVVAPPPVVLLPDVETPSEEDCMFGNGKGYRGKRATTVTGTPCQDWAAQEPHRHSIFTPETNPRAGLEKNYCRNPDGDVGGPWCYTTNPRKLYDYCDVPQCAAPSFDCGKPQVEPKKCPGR

Compound | IC50 (Thrombin) | IC50 (Kallikrein) | IC50 (Cls) | IC50 (Trypsin) | Inhibition of complement mediated hemolysis (%) (complement; compound at 1 × 10^-4) | Inhibition of complement mediated hemolysis (%) (complement; compound at 1 × 10^-5) | Inhibition of complement mediated hemolysis (%) (complement; compound at 1 × 10^-6) | Inhibition of complement mediated hemolysis (%) (complement; compound at 1 × 10^-7) | IC50 (Clr) | IC50 (Plasmin)
N=C(N)c1ccc(OC(=O)c2ccc(CN)cc2)c([N+](=O)[O-])c1 [Compound 62] | 500000 nM | 2000 nM | 600 nM | 500 nM | 100% | 100% | 100% | 95.4% | 500 nM | 3000 nM
N=C(N)c1ccc(OC(=O)c2ccc(O)cc2)c(C(=O)c2ccccc2)c1 [Compound 46, 4-amidino-2-benzoylphenyl 4-hydroxybenzoate] | 40 nM | 300 nM | 90 nM | 50 nM | 100% | 98.0% | 67.6% | 5.0% | 2000 nM | 600 nM
COC(=O)c1ccc(C(=O)Oc2ccc(C(=N)N)cc2C(=O)c2ccccc2)cc1 [Compound 50] | 200 nM | > 10000 nM | > 10000 nM | 4000 nM | 98.8% | 75.4% | 6.9% | 0% | 9000 nM | 500 nM
CC(C)(C)c1ccc(C(=O)Oc2ccc(C(=N)N)cc2C(=O)c2ccccc2)cc1 [Compound 39] | 200 nM | 400 nM | 200 nM | 10 nM | 0% | 95.4% | 96.8% | 52.1% | 400 nM | 200 nM
CC=CC=CC(=O)Oc1ccc(C(=N)N)cc1C(=O)c1ccccc1 [Compound 6] | 80 nM | 300 nM | 300 nM | 200 nM | 100% | 97.7% | 52.9% | 5.0% | 1000 nM | 400 nM
COc1cc(C(=N)N)ccc1OC(=O)/C=C/c1ccccc1 [Compound 31, 4-amidino-2-methoxyphenyl cinnamate] | 20000 nM | 40000 nM | 3000 nM | 8000 nM | 97.2% | 80.5% | 15.8% | 1.8% | 2000 nM | 3000 nM
N=C(N)c1ccc(OC(=O)CCCCCN)c(C(=O)c2ccccc2)c1 [Compound 13, 4-amidino-2-benzoylphenyl 6-aminocaproate] | > 10000 nM | > 10000 nM | > 10000 nM | > 10000 nM | 15.9% | 9.8% | 0% | 0% | > 10000 nM | > 10000 nM
COc1cc(C(=N)N)ccc1OC(=O)[C@H]1CC[C@H](CNC(=O)OCc2ccccc2)CC1 [Compound 16] | 1000 nM | 5000 nM | 800 nM | 10000 nM | 91.2% | 61.8% | 17.4% | 3.4% | > 10000 nM | 300 nM
COc1ccc(C(=O)Oc2ccc(C(=N)N)cc2C(=O)c2ccccc2)cc1 [Compound 42] | 70 nM | 300 nM | 40 nM | 70 nM | 100% | 99.1% | 70.0% | 7.6% | 1000 nM | 300 nM
CC(C)(C)c1ccc(C(=O)Oc2ccc(C(=N)N)cc2[N+](=O)[O-])cc1 [Compound 38] | 200 nM | 1000 nM | 300 nM | 20 nM | 98.6% | 100% | 96.1% | 37.2% | 300 nM | 400 nM
COC(=O)c1cc(C(=N)N)ccc1OC(=O)c1ccc(C=O)cc1 [Compound 51] | 900 nM | > 10000 nM | 3000 nM | 200 nM | 99.1% | 90.9% | 15.0% | 0% | > 10000 nM | 300 nM
COc1cc(C(=N)N)ccc1OC(=O)c1ccccc1 [Compound 23, 4-amidino-2-methoxyphenyl benzoate] | 200 nM | 60000 nM | 5000 nM | 10000 nM |  |  |  |  | 7000 nM | 20000 nM
CC(=O)Oc1ccc(C(=N)N)cc1C(=O)c1ccccc1 [Compound 1, 4-amidino-2-benzoylphenyl acetate] | > 10000 nM | > 10000 nM |  | > 10000 nM | 95.9% | 37.3% | 16.0% | 0% | > 10000 nM | > 10000 nM
N=C(N)c1ccc(OC(=O)C2CC2)c([N+](=O)[O-])c1 [Compound 7, 4-amidino-2-nitrophenyl cyclopropanecarboxylate] | 500 nM | > 10000 nM |  | > 10000 nM | 99.0% | 78.2% | 10.2% | 1.7% | > 10000 nM | 4000 nM
